Experimental data as given in patent publication EP0750618B1, “OXAZOLIDINONE DERIVATIVES AND PHARMACEUTICAL COMPOSITIONS CONTAINING THEM” (priority 1994, dated 1995).
Values after ≈ are worked out from the molar mass of the structure shown. Like-named read-outs stand apart in the source and are kept apart here.

Columns and labels:
Experiment in all cases: MIC test, standard agar dilution method
[1] = test system: Staphylococcus epidermidis (UC 12084); type: cell-based; conditions: UC12084, incubated overnight at 35°C, read-out: Minimum Inhibitory Concentrations (MIC) S. enidermidis
Staphylococcus aureus = test system: Staphylococcus aureus
[2] = test system: Streptococcus pyogenes (UC 152); conditions: UC152, read-out: Minimum Inhibitory Concentrations (MIC) S. pyogenes
[3] = UC9213, read-out: Minimum Inhibitory Concentrations (MIC) S. aureus

Compound | MIC [1] [µg/mL] | MIC (Staphylococcus aureus; [3]) [µg/mL] | MIC [2] [µg/mL] | MIC (Staphylococcus aureus; UC9218, read-out: Minimum Inhibitory Concentrations (MIC) S. aureus) [µg/mL]
CC(=O)NC[C@H]1CN(c2ccc(N3CCC(=NNC(=O)CO)CC3)c(F)c2)C(=O)O1 [compound 50, (S)-N-[3-(3-fluoro-4-{4-[(2-hydroxy-acetyl)-hydrazono]-piperidin-1-yl}-phenyl)-2-oxo-oxazolidin-5-ylmethyl]-acetamide] | 4 (≈ 9.49 µM) | 16 (≈ 38 µM) | 4 (≈ 9.49 µM) | 
CC(=O)NC[C@H]1CN(c2ccc(N3CCC(=NNC(N)=O)CC3)c(F)c2)C(=O)O1 [compound 39, (S)-N-{3-[3-fluoro-4-(4-semicarbazono-piperidin-1-yl)-phenyl]-2-oxo-oxazolidin-5-ylmethyl}-acetamide] | 0.5 (≈ 1.23 µM) | 2 (≈ 4.92 µM) | 2 (≈ 4.92 µM) | 
CC(=O)CC1CCN(c2ccc(N3C[C@H](CNC(C)=O)OC3=O)cc2F)CC1 [compound 33, (S)-N-(3-{3-fluoro-4-[4-(2-oxo-propyl)-piperidin-1-yl]-phenyl}-2-oxo-oxazolidin-5-ylmethyl)-acetamide] | 2 (≈ 5.11 µM) | 8 (≈ 20.4 µM) | 2 (≈ 5.11 µM) | 
COC(=O)ON=C1CCN(c2ccc(N3C[C@H](CNC(C)=O)OC3=O)cc2F)CC1 [compound 38, (S)-N-{3-[3-fluoro-4-(4-methoxycarbonyloxyimino-piperidin-1-yl)-phenyl]-2-oxo-oxazolidin-5-ylmethyl}-acetamide] | 0.5 (≈ 1.18 µM) | 2 (≈ 4.73 µM) | 1 (≈ 2.37 µM) | 
CC(=O)NC[C@H]1CN(c2ccc(N3CCCCC3)c(F)c2)C(=O)O1 [Compound No. 2, (S)-N-[3-(3-fluoro-4-piperidin-1-yl-phenyl)-2-oxo-oxazolidin-5-ylmethyl]-acetamide] | 1 (≈ 2.98 µM) |  | 4 (≈ 11.9 µM) | 8 (≈ 23.9 µM)
CC(=O)NC[C@H]1CN(c2ccc(N3CCC(=NOCC(O)CO)CC3)c(F)c2)C(=O)O1 (stereo partly drawn) [Compound No. 62, (S)-N-(3-{4-[4-(2,3-dihydroxy-propoxyimino)-piperidin-1-yl]-3-fluorophenyl}-2-oxo-oxazolidin-5-ylmethyl)-acetamide] | 1 (≈ 2.28 µM) | 8 (≈ 18.2 µM) | 2 (≈ 4.56 µM) | 
CONC1CCN(c2ccc(N3C[C@H](CNC(C)=O)OC3=O)cc2F)CC1 [Compound No. 59, (S)-N-{3-[3-fluoro-4-(4-methoxyamino-piperidin-1-yl)-phenyl]-2-oxo-oxazolidin-5-ylmethyl}-acetamide] | 2 (≈ 5.26 µM) | 4 (≈ 10.5 µM) | 4 (≈ 10.5 µM) | 
CC(=O)NC[C@H]1CN(c2ccc(N3CCC(=NN4CCN(CCO)CC4)CC3)c(F)c2)C(=O)O1 [compound 49, (S)-N-[3-(3-fluoro-4-{4-[4-(2-hydroxy-ethyl)-piperazin-1-ylimino]-piperidin-1-yl)-phenyl)-2-oxo-oxazolidin-5-ylmethyl]-acetamide] | 0.5 (≈ 1.05 µM) | 4 (≈ 8.39 µM) | 1 (≈ 2.1 µM) | 
CC(=O)NC[C@H]1CN(c2ccc(N3CCC(=O)C(CO)C3)c(F)c2)C(=O)O1 (stereo partly drawn) [Compound No. 37, (S)-N-{3-[3-fluoro-4-(3-hydroxymethyl-4-oxo-piperidin-1-yl)-phenyl]-2-oxo-oxazolidin-5-ylmethyl}-acetamide] | 2 (≈ 5.27 µM) | 8 (≈ 21.1 µM) | 2 (≈ 5.27 µM) | 
COCOCCON=C1CCN(c2ccc(N3C[C@H](CNC(C)=O)OC3=O)cc2F)CC1 [compound 53, (S)-N-(3-{3-fluoro-4-[4-(2-methoxymethoxy-ethoxyimino)-piperidin-1-yl]-phenyl}-2-oxo-oxazolidin-5-ylmethyl)-acetamide] | 2 (≈ 4.42 µM) | 16 (≈ 35.4 µM) | 4 (≈ 8.84 µM) | 
CC(=O)NC[C@H]1CN(c2ccc(N3CCC(Nc4nccs4)CC3)c(F)c2)C(=O)O1 [Compound No. 63, (S)-N-(3-{3-fluoro-4-[4-(thiazol-2-ylamino)-piperidin-1-yl]-phenyl}-2-oxo-oxazolidin-5-ylmethyl)-acetamide] | 2 (≈ 4.61 µM) | 16 (≈ 36.9 µM) | 2 (≈ 4.61 µM) | 
CC(=O)NC[C@H]1CN(c2ccc(N3CCC(=NN4CCOCC4)CC3)c(F)c2)C(=O)O1 [compound 40, (S)-N-(3-{3-fluoro-4-[4-(morpholin-4-ylimino)-piperidin-1-yl]-phenyl}-2-oxo-oxazolidin-5-ylmethyl)-acetamide] | 0.5 (≈ 1.15 µM) | 4 (≈ 9.23 µM) | 2 (≈ 4.61 µM) | 
CC(=O)NC[C@H]1CN(c2ccc(N3CCC(CC4(C)OCCO4)CC3)c(F)c2)C(=O)O1 [Compound No. 32, (S)-N-(3-{3-fluoro-4-[4-(2-methyl-[1,3]dioxolan-2-ylmethyl)-piperidin-1-yl]-phenyl}-2-oxo-oxazolidin-5-ylmethyl)-acetamide] | 4 (≈ 9.18 µM) | 16 (≈ 36.7 µM) | 4 (≈ 9.18 µM) | 
CN[C@H](CC(C)C)C(=O)N[C@H]1C(=O)N[C@@H](CC(N)=O)C(=O)N[C@H]2C(=O)N[C@H]3C(=O)N[C@H](C(=O)N[C@H](C(=O)O)c4cc(O)cc(O)c4-c4cc3ccc4O)[C@H](O)c3ccc(c(Cl)c3)Oc3cc2cc(c3O[C@@H]2O[C@H](CO)[C@@H](O)[C@H](O)[C@H]2O[C@H]2C[C@](C)(N)[C@H](O)[C@H](C)O2)Oc2ccc(cc2Cl)[C@H]1O [Vancomycin, reference compound] | 2 (≈ 1.38 µM) | 1 (≈ 0.69 µM) | 0.5 (≈ 0.345 µM) | 
CC(=O)NC[C@H]1CN(c2ccc(N3CCC(=Nn4cnnc4)CC3)c(F)c2)C(=O)O1 [compound 51, (S)-N-(3-{3-fluoro-4-[4-([1,2,4]triazol-4-ylimino)-piperidin-1-yl]-phenyl}-2-oxo-oxazolidin-5-ylmethyl)-acetamide] | 1 (≈ 2.41 µM) | 4 (≈ 9.63 µM) | 2 (≈ 4.81 µM) | 
CC(=O)NC[C@H]1CN(c2ccc(N3CCC(=NNCCO)CC3)c(F)c2)C(=O)O1 [compound 41, (S)-N-[3-(3-fluoro-4-{4-[(2-hydroxy-ethyl)-hydrazono]-piperidin-1-yl}-phenyl)-2-oxo-oxazolidin-5-ylmethyl]-acetamide] | 0.5 (≈ 1.23 µM) | 4 (≈ 9.82 µM) | 1 (≈ 2.45 µM) | 
CC(=O)NC[C@H]1CN(c2ccc(N3CCC(=NOC(=O)COCc4ccccc4)CC3)c(F)c2)C(=O)O1 [compound 45, (S)-N-{3-[3-fluoro-4-(4-benzyloxyacetoxyimino-piperidin-1-yl)-phenyl]-2-oxo-oxazolidin-5-ylmethyl}-acetamide] | 0.5 (≈ 0.976 µM) | 2 (≈ 3.9 µM) | 2 (≈ 3.9 µM) | 
CC(=O)NC[C@H]1CN(c2ccc(N3CCC(NC(=O)OCOC(C)=O)CC3)c(F)c2)C(=O)O1 [compound 65, (S)-N-(3-{4-[4-(acetoxy-methoxy-carbonylamino)-piperidin-1-yl]-3-fluorophenyl}-2-oxo-oxazolidin-5-ylmethyl)-acetamide] | 1 (≈ 2.14 µM) | 8 (≈ 17.2 µM) | 0.5 (≈ 1.07 µM) | 
CON=C1CCN(c2ccc(N3C[C@H](CNC(C)=O)OC3=O)cc2F)CC1 [Compound No. 29, (S)-N-{3-[3-fluoro-4-(4-methoxyimino-piperidin-1-yl)-phenyl]-2-oxo-oxazolidin-5-ylmethyl}-acetamide] | 1 (≈ 2.64 µM) | 4 (≈ 10.6 µM) | 4 (≈ 10.6 µM) | 
CC(=O)NC[C@H]1CN(c2ccc(N3CCC(C4(C)OCCO4)CC3)c(F)c2)C(=O)O1 [Compound No. 35, (S)-N-(3-{3-fluoro-4-[4-(2-methyl-[1,3]dioxolan-2-yl)-piperidin-1-yl]-phenyl}-2-oxo-oxazolidin-5-ylmethyl)-acetamide] | 2 (≈ 4.75 µM) | 8 (≈ 19 µM) | 2 (≈ 4.75 µM) | 
CC(=O)NC[C@H]1CN(c2ccc(N3CCC4(CC3)OCCN4C(=O)CO)c(F)c2)C(=O)O1 [Compound No. 54, (S)-N-(3-{3-fluoro-4-[4-(2-hydroxy-acetyl)-1-oxa-4,8-diaza-spiro[4.5]dec-8-yl]-phenyl}-2-oxo-oxazolidin-5-ylmethyl)-acetamide] | 4 (≈ 8.88 µM) | 16 (≈ 35.5 µM) | 4 (≈ 8.88 µM) | 
COCON=C1CCN(c2ccc(N3C[C@H](CNC(C)=O)OC3=O)cc2F)CC1 [compound 60, (S)-N-{3-[3-fluoro-4-(4-methoxymethoxyimino-piperidin-1-yl)-phenyl]-2-oxo-oxazolidin-5-ylmethyl}-acetamide] | 2 (≈ 4.9 µM) | 8 (≈ 19.6 µM) | 2 (≈ 4.9 µM) | 
CC(=O)NC[C@H]1CN(c2ccc(N3CCC(=NN)CC3)c(F)c2)C(=O)O1 [compound 46, (S)-N-{3-[3-fluoro-4-(4-hydrazono-piperidin-1-yl)-phenyl]-2-oxo-oxazolidin-5-ylmethyl}-acetamide] | 0.5 (≈ 1.38 µM) | 2 (≈ 5.5 µM) | 2 (≈ 5.5 µM) | 
CC(=O)NC[C@H]1CN(c2ccc(N3CCC(NC(=O)CO)CC3)c(F)c2)C(=O)O1 [compound 10, (S)-N-(1-{4-[5-(acetylamino-methyl)-2-oxo-oxazolidin-3-yl]-2-fluoro-phenyl}-piperidin-4-yl)-2-hydroxy-acetamide] | 2 (≈ 4.9 µM) | 16 (≈ 39.2 µM) | 2 (≈ 4.9 µM) | 
CC(=O)NC[C@H]1CN(c2ccc(N3CCC(C4(CO)OCCO4)CC3)c(F)c2)C(=O)O1 [Compound No. 44, (S)-N-(3-{3-fluoro-4-[4-(2-hydroxymethyl-[1,3]dioxolan-2-yl)-piperidin-1-yl]-phenyl}-2-oxo-oxazolidin-5-ylmethyl)-acetamide] | 2 (≈ 4.57 µM) | 16 (≈ 36.6 µM) | 24 (≈ 54.9 µM) | 
CC(=O)NC[C@H]1CN(c2ccc(N3CCC(NC(C)=O)CC3)c(F)c2)C(=O)O1 [compound 9, (S)-N-{3-[4-(4-acetylamino-piperidin-1-yl)-3-fluoro-phenyl]-2-oxo-oxazolidin-5-ylmethyl}-acetamide] | 2 (≈ 5.1 µM) | 16 (≈ 40.8 µM) | 4 (≈ 10.2 µM) | 
COCOC1CCN(c2ccc(N3C[C@H](CNC(C)=O)OC3=O)cc2F)CC1 [compound 27, (S)-N-{3-[3-fluoro-4-(4-methoxymethoxy-piperidin-1-yl)-phenyl]-2-oxo-oxazolidin-5-ylmethyl}-acetamide] | 2 (≈ 5.06 µM) | 8 (≈ 20.2 µM) | 8 (≈ 20.2 µM) | 
CC(=O)NC[C@H]1CN(c2ccc(N3CCC(=NOCCO)CC3)c(F)c2)C(=O)O1 [compound 48, (S)-N-(3-{3-fluoro-4-[4-(2-hydroxy-ethoxyimino)-piperidin-1-yl]-phenyl}-2-oxo-oxazolidin-5-ylmethyl)-acetamide] | 1 (≈ 2.45 µM) | 8 (≈ 19.6 µM) | 2 (≈ 4.9 µM) | 
